The values that follow come from ChEMBL document CHEMBL4673347, “Discovery of new thieno[2,3-d]pyrimidine and thiazolo[5,4-d]pyrimidine derivatives as orally active phosphoinositide 3-kinase inhibitors” (Bioorg Med Chem, 2021).

A short description of data set [1]: Apparent permeability across apical to basolateral side in human Caco-2 cells. The data set is classed as ADME, cell-based.
In another data set the test system is Mus musculus. Briefly: In vivo inhibition of PI3Kalpha in BALB/c mouse assessed as increase in plasma insulin level at 40 mg/kg, po measured after 30 mins by ELISA. The class given is functional, organism-based.
Data set [2] addresses Phosphatidylinositol 4,5-bisphosphate 3-kinase catalytic subunit beta isoform (Homo sapiens, UniProt P42338). Briefly: Inhibition of recombinant human PI3Kbeta using PIP2 as substrate by ADP-Glo reagent based assay.
Data set [3] deals with HGC-27. The data set is described as follows: Inhibition of PI3K signalling in human HGC-27 cells assessed as reduction in 4E-BP1 phosphorylation incubated for 3 hrs by Western blot analysis. The class given is cell-based. To be noted: dose 20-1000 nM. Background: Immunoblotting shows a protein as a band on a membrane.
The nature of data set [4]: AUC (0 to infinity) in ICR mouse at 40 mg/kg, po measured upto 24 hrs by LC-MS/MS analysis. The data set is classed as ADME, organism-based. Also on record: route oral, dose 40 mg/kg, time <=24. To be noted: in vivo.
Another data set has as its system MGC-803. The data set is described as follows: Antiproliferative activity against human MGC-803 cells assessed as reduction in cell viability incubated for 72 hrs measured after 4 hrs of MTT addition by MTT assay. The class given is functional, cell-based. (Tetrazolium assays rely on reduction of a dye to a coloured formazan, in cell work by metabolically active cells.)

In another data set the test system is NCI-H460. Briefly: Antiproliferative activity against human NCI-H460 cells assessed as reduction in cell viability incubated for 72 hrs measured after 4 hrs of MTT addition by MTT assay. The class given is functional, cell-based.
Data set [5] deals with HGC-27. Briefly: Antitumor activity against human HGC-27 cells xenografted in BALB/c mouse assessed as tumor growth inhibition at 40 mg/kg, po administered for 25 days and measured on day 25 relative to control. The class given is functional. The conditions noted are these: HGC-27, po, 600 h, time 25 day, read-out: TGI.
The test system of data set [6] is HGC-27. Briefly: Induction of apoptosis in human HGC-27 cells assessed as necrotic cells at 500 nM incubated for 24 hrs by annexin V-FITC and propidium iodide based staining based flow cytometry analysis (reference value: 1.95 %). The class given is functional. A general note: A flow cytometer gives signals particle by particle.
Another data set concerns BGC-823. The data set is described as follows: Antiproliferative activity against human BGC-823 cells assessed as reduction in cell viability incubated for 72 hrs measured after 4 hrs of MTT addition by MTT assay. The data set is classed as functional, cell-based.
The subject of data set [7] is HGC-27. Briefly: Induction of cell cycle arrest in human HGC-27 cells assessed as G0/G1 phase incubated for 24 hrs by propidium iodide staining based flow cytometry analysis. The data set is classed as functional. To be noted: dose 20-500 nM.
Data set [8] can be described thus: Toxicity in BALB/c mouse xenografted with human HGC-27 cells assessed as body weight reduction at 40 mg/kg, po administered for 25 days and measured on day 25. The data set is classed as organism-based. Also on record: scale not given: the % may be the effect or the level left. The conditions noted are these: in vivo, 600 h, time 25 day.
Data set [9] deals with HGC-27. The data set is described as follows: Antitumor activity against human HGC-27 cells xenografted in BALB/c mouse assessed as tumor growth inhibition at 20 mg/kg, po administered for 25 days and measured on day 25 relative to control. The data set is classed as functional. The conditions noted are these: HGC-27, po, 600 h, time 25 day, read-out: TGI.
The subject of data set [10] is HGC-27. Briefly: Antitumor activity against human HGC-27 cells xenografted in BALB/c mouse assessed as tumor growth inhibition administered orally for 25 days and measured on day 25. The class given is functional. To be noted: time 25.0 day.

Activity calls are given as the source filed them. The rule behind the calls is not given here.

Chain of Phosphatidylinositol 4,5-bisphosphate 3-kinase catalytic subunit beta isoform (P42338 whole entry, canonical isoform): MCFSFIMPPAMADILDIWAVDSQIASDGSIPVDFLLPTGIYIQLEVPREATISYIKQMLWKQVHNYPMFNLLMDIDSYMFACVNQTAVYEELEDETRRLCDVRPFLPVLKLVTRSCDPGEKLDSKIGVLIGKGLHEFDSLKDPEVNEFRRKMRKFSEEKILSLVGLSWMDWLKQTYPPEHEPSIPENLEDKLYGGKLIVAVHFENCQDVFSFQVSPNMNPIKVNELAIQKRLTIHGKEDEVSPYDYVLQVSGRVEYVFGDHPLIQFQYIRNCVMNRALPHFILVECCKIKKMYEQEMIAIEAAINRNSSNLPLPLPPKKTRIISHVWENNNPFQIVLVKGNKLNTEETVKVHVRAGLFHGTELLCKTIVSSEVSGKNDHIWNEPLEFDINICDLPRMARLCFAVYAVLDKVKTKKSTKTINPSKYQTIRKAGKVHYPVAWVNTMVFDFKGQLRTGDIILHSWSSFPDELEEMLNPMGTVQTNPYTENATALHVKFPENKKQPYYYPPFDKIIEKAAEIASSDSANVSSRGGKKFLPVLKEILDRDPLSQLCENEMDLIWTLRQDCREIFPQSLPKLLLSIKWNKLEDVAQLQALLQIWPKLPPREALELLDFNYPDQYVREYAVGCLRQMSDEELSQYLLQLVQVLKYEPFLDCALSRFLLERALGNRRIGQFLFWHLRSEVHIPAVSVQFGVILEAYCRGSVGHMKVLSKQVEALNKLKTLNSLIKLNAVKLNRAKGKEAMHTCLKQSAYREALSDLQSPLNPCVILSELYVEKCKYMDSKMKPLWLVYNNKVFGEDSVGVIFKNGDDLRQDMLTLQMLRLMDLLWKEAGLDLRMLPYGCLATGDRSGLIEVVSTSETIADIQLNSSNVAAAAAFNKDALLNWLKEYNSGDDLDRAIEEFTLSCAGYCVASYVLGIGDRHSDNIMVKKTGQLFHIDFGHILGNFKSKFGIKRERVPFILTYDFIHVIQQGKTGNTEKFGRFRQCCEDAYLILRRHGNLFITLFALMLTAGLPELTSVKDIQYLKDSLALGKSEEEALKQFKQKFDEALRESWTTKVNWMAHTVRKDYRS

As a reminder, the Papp A→B is how fast a substance crosses the layer from the apical side. Broadly, the IC50 is the concentration that inhibits the measured activity by half. What is called AUC(0-inf) is total exposure, with the tail of the curve extrapolated. With `COc1ncc(-c2cc3c(N4CCOCC4)ncnc3s2)cc1NS(=O)(=O)c1ccc(F)cc1F`, the Papp A→B in data set [1] amounted to 21.1 ×10⁻⁶ cm/s. For the same compound, the inhibition result with Mus musculus is “Active”. In addition, the IC50 in [2] was 50 nM; with MGC-803, 6800 nM; in the data set on NCI-H460 it was 4000 nM; with BGC-823, 4200 nM. The inhibition result in the data set on HGC-27 [3] was “Dose-dependent effect”. The compound also gave an AUC(0-inf) in data set [4] of 187 µg·h/mL. For the same compound, in the data set with HGC-27 [5], the inhibition in vivo at 40 mg/kg came out at 58.2%. The Activity was 0.26% in the data set on HGC-27 [6] and “Dose-dependent effect” in the data set with HGC-27 [7].
As for `COc1ncc(-c2nc3c(N4CCOCC4)ncnc3s2)cc1NS(=O)(=O)c1ccc(F)cc1F`, the Activity in data set [8] is 14.8%; with HGC-27 [6], 0.23%; with HGC-27 [7], “Dose-dependent effect”. Also, in data set [1], the Papp A→B was found to be 21.4 ×10⁻⁶ cm/s. Further, the inhibition entry with Mus musculus was “Active”. Further, the IC50 came to 5.3 nM in data set [2], 670 nM in the data set with MGC-803, 490 nM in the data set on NCI-H460 and 1100 nM in the data set with BGC-823. Also, in the data set with HGC-27 [3], the inhibition result was “Dose-dependent effect”. In addition, the area under the curve AUC(0-inf) in data set [4] came to 142 µg·h/mL. For the same compound, the inhibition in vivo at 20 mg/kg in the data set on HGC-27 [9] worked out at 75.5%. In addition, the inhibition in vivo at 40 mg/kg with HGC-27 [5] stood at 88.7%. For the same compound, the TGI entry with HGC-27 [10] is “Dose-dependent effect”.
